The target in experiment [1] is human P2X7 receptor (Homo sapiens, UniProt Q99572, R270H/Y155H). As to the kind of experiment: Evaluation of human P2X7 receptor inhibitory activity (Yo-Pro uptake, BzATP stimulation, FLIPR TETRA). The experiment is classed as cell-based. Particulars: 1321N1 cells stably expressing human P2X7 receptor; BzATP stimulation, Yo-Pro uptake; read-out: IC50 (antagonistic activity for the human P2X7 receptor). The essentials: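 1321N1 cells stably expressing human P2X7 (T606C/G952A SNP variant), in HBSS buffer pH 7.4-7.5 with Yo-Pro, stimulated with BzATP; compound added 8 min after agonist. Fluorescence followed for 20 min on FLIPR; max-minus-min change gave % inhibition, IC50 by logistic fit.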

Experiment [2] concerns partial sciatic nerve ligation model in rats. As to the kind of experiment: Analgesic effect in a Seltzer model, evaluation (1): mechanical allodynia, von Frey filaments. The experiment is classed as in vivo. Particulars: rat, read-out: analgesic effect, % reversal of mechanical allodynia. An excerpt: Preparation of Partial Sciatic Nerve Ligation Model in Rats
Rats are anaesthetized using isoflurane/O2 inhalation anaesthesia. After induction of anesthesia, the left thigh is shaved. An incision was made in the skin just below the hip bone. The muscle was bluntly dissected to expose the sciatic nerve. About one half (½) of the sciatic nerve thickness is tightly ligated with a nylon thread and the wound is closed. The right thigh was used as a sham-operated control. The right thigh underwent an identical procedure with the left hind limb, however, the sciatic nerve was not manipulated or ligated.
Two weeks after nerve ligation, the effect on mechanical allodynia was assessed using a series of von Frey filaments. For habituation, the rats were placed into a plastic cage on a wire mesh bottom. Von Frey filaments (0.4 to 26 g) were applied to the plantar surface of the rat hind paws from the wire mesh side, and the value of the filament pressure at which the paw was withdrawn was used as a pain threshold. The measurement of mechanical sensitivity of the right and left hind paws was performed to obtain predose mechanical sensitivity. The rats showing the threshold change from 0.6 to 2 g (in nerve ligated side) and 8 to 15 g (in sham operated side) were used in the experiments. On the day before the experiment, the rats were evaluated with a series of von Frey filaments to familiarize them with the test procedure. The adopted animal was administrated with the compounds of the present invention. The compounds of the present invention were homogenized with mortar and pestle and suspended or diluted in 0.5% Methyl Cellulose to prepare 0.03-100 mg/2 mL/kg suspension and orally administered to rat using a syringe attached with a sonde. Post-dose mechanical sensitivities of the right and left hind paws were measured at approximately 1 to 7 hours after drug administration. Percent reversal of mechanical allodynia for each rat was calculated using the following formula. The analgesic effects of the compounds were compared.

Where [3] appears, read: 5 hours after oral administration of 3 mg/kg.
[4] abbreviates: 3 hours after oral administration of 3 mg/kg.

Read-outs that look alike come from different tables or passages of the source.

For orientation: IC50 means the concentration needed to halve the response being measured.

On to `COc1ccc(C)c(Nc2nc(=O)c(F)cn2Cc2cc(F)c(F)c(F)c2)c1` [Compound I-1066], for which the IC50 in experiment [1] was 3 nM. Also, in experiment [2] (setting [3]), the inhibition in vivo at 3 mg/kg came out at 63%.

As to `Cc1cc2c(cc1Nc1nc(=O)c(F)cn1Cc1cc(F)c(F)c(F)c1)COC2` [Compound I-1041], in experiment [1], the IC50 was 9 nM. Moreover, the inhibition in vivo at 3 mg/kg in experiment [2] (setting [3]) was 48%.

Take `COc1ccc(Nc2nc(=O)c(F)cn2Cc2cc(F)cc(F)c2)c(C)c1F` [Compound I-1297]: the IC50 in experiment [1] stood at 16 nM. In addition, the inhibition in vivo at 3 mg/kg in experiment [2] (setting [3]) was 49%.

As for `COc1cn(Cc2cc(F)c(F)c(F)c2)c(Nc2cc3c(cc2C)COC3)nc1=O` [Compound I-0910], the IC50 in experiment [1] came out at 14 nM. Besides, in experiment [2] (setting [3]), the inhibition in vivo at 3 mg/kg amounted to 45%.

In the case of `Cc1cc(Nc2nc(=O)c(F)cn2Cc2cc(F)c(F)c(F)c2)c(C)nc1OC(F)F` [Compound I-1232], the IC50 in experiment [1] was determined as 6 nM. Besides, in experiment [2] (setting [3]), the inhibition in vivo at 3 mg/kg was 55%.

Turning to `O=C1CCCc2c(Nc3nc(=O)c(F)cn3Cc3cc(F)c(F)c(F)c3)cccc21` [Compound I-1108], in experiment [1], the IC50 is 4 nM. For the same compound, the inhibition in vivo at 3 mg/kg in experiment [2] (setting [3]) worked out at 42%.

As to `COc1ccc(F)c(Nc2nc(=O)c(F)cn2Cc2cc(F)c(F)c(F)c2)c1` [Compound I-1296], the IC50 in experiment [1] is 11 nM. In experiment [2] (setting [4]), the inhibition in vivo at 3 mg/kg is 59%.

With `COc1cc(C)c(Nc2nc(=O)c(OC)cn2Cc2cc(F)cc(F)c2)cc1C` [Compound I-0372], the IC50 in experiment [1] is 5 nM. In addition, in experiment [2] (setting [4]), the inhibition in vivo at 3 mg/kg worked out at 64%.

In the case of `COc1ccc(Nc2nc(=O)c(F)cn2Cc2cc(F)cc(F)c2)c(C)c1` [Compound I-0842], in experiment [1], the IC50 was determined as 5 nM. For the same compound, the inhibition in vivo at 3 mg/kg in experiment [2] (setting [3]) came out at 69%.

In the case of `CCOc1ccc(Nc2nc(=O)c(OC)cn2Cc2cc(F)c(F)c(F)c2)c(C)c1` [Compound I-0702], the concentration for half-maximal inhibition (IC50) in experiment [1] amounted to 11 nM. Further, in experiment [2] (setting [3]), the inhibition in vivo at 3 mg/kg was 58%.

Consider `COc1cc(C)c(Nc2nc(=O)c(C)nn2Cc2cc(F)cc(F)c2)cc1OC` [Compound I-1261], for which the IC50 in experiment [1] was determined as 16 nM. The inhibition in vivo at 3 mg/kg in experiment [2] (setting [3]) came to 54%.

As to `COc1cn(Cc2ccc(F)c(Cl)c2)c(Nc2cc3sc(C)nc3cc2C)nc1=O` [Compound I-0005], the half-inhibitory concentration (IC50) in experiment [1] came to 5 nM. Also, the inhibition in vivo at 3 mg/kg in experiment [2] (setting [4]) was 45%.

On to `COc1cn(Cc2ccc(F)c(Cl)c2)c(Nc2cc(C)c(Cl)cc2C)nc1=O` [Compound I-0006], for which the IC50 in experiment [1] was 6 nM. Also, in experiment [2] (setting [4]), the inhibition in vivo at 3 mg/kg came out at 49%.

On to `COc1cn(Cc2ccc(F)c(Cl)c2)c(Nc2ccc(OC(F)F)cc2C)nc1=O` [Compound I-0365], for which the IC50 in experiment [1] turned out to be 18 nM. The inhibition in vivo at 3 mg/kg in experiment [2] (setting [3]) turned out to be 55%.

`COc1cc(Nc2nc(=O)c(F)cn2Cc2cc(F)cc(F)c2)c(C)cc1F` [Compound I-1050]: the IC50 in experiment [1] was determined as 10 nM. Also, in experiment [2] (setting [3]), the inhibition in vivo at 3 mg/kg was 46%.

On to `COc1cn(Cc2cc(F)c(F)c(F)c2)c(Nc2ccc(OC(F)F)cc2C)nc1=O` [Compound I-0707], for which the half-inhibitory concentration (IC50) in experiment [1] was 14 nM. Besides, in experiment [2] (7 hours after oral administration of 3 mg/kg), the inhibition in vivo at 3 mg/kg came out at 53%.

Take `Cc1ccc(F)cc1Nc1nc(=O)c(F)cn1Cc1cc(F)c(F)c(F)c1` [Compound I-1295]: the IC50 in experiment [1] is 13 nM. Further, in experiment [2] (setting [4]), the inhibition in vivo at 3 mg/kg stood at 51%.

With `COc1ccc(Nc2nc(=O)c(F)cn2Cc2cc(F)c(F)c(F)c2)c(C)c1` [Compound I-1040], the IC50 in experiment [1] worked out at 6 nM. Moreover, the inhibition in vivo at 3 mg/kg in experiment [2] (setting [4]) was found to be 49%.

Turning to `COc1ccc(C)c(Nc2nc(=O)c(OC)cn2Cc2ccc(F)c(Cl)c2)c1` [Compound I-0354], the IC50 in experiment [1] worked out at 3 nM. In addition, in experiment [2] (setting [4]), the inhibition in vivo at 3 mg/kg is 51%.

For `COc1cc(C)c(Nc2nc(=O)cnn2Cc2cc(F)c(F)c(F)c2)cc1OC` [Compound I-1281], the IC50 in experiment [1] worked out at 4 nM. Besides, in experiment [2] (setting [3]), the inhibition in vivo at 3 mg/kg turned out to be 48%.

The record behind these values is US10774051B2, “6-membered heterocyclic derivatives and pharmaceutical composition comprising the same” (Shionogi & Co., Ltd., priority 2015, dated 2020).
